Data from patent US7220750B2, “Bicyclic heterocycles, pharmaceutical compositions containing these compounds, their use and processes for preparing them” (Boehringer Ingelheim Pharma GmbH & Co. KG, priority 1999, dated 2007).

Experiments:
human EGF-R = molecular target: T1, human EGF-R (Homo sapiens, UniProt P00533); test: Inhibition of EGF-dependent proliferation of F/L-HERc cells (Cell Titer 96 assay); assay type: cell-based; settings: F/L-HERc cells (murine IL-3-dependent line expressing human EGF-R), stimulated with EGF 20 ng/ml, 48 hours
T1 construct: expressed in transfected cells; host or cells: F/L-HERc cells (murine IL-3-dependent FDC-P1 line transduced with LXSN retroviral vector carrying human EGF-R cDNA; packaging line GP+E86)
Excerpt: A cell line of murine origin dependent on interleukin-3-(IL-3) which was genetically modified to express functional human EGF-R was used here. The proliferation of these cells known as F/L-HERc can therefore be stimulated either by murine IL-3 or by EGF (cf. T. von Rüden et al., EMBO J. 7, 2749–2756 (1988) and J. H Pierce et al., Science 239, 628–631 (1988)).
The starting material used for the F/L-HERc cells was the cell line FDC-P1, the production of which has been described by T. M. Dexter et al., J. Exp. Med. 152, 1036–1047 (1980). Alternatively, however, other growth-factor-dependent cells may also be used (cf., for example, J. H. Pierce et al., Science 239, 628–631 (1988); H. Shibuya et al., Cell 70, 57–67 (1992); and W. S. Alexander et al., EMBO J. 10, 3683–3691 (1991)). For expressing the human EGF-R cDNA (cf. Ullrich, A. et al. in Nature 309, 418–425 (1984)) recombinant retroviruses were used as described by T. von Rüden et al., EMBO J. 7, 2749–2756 (1988), except that the retroviral vector LXSN (cf. A. D. Miller et al., BioTechniques 7, 980–990 (1989)) was used for the expression of the EGF-R cDNA and the line GP+E86 (cf. D. Markowitz et al., J. Virol. 62, 1120–1124 (1988)) was used as the packaging cell.
F/L-HERc cells were cultivated in RPMI/1640 medium (BioWhittaker), supplemented with 10% fetal calf serum (FCS, Boehringer Mannheim), 2 mM glutamine (BioWhittaker), standard antibiotics and 20 ng/ml of human EGF (Promega), at 37° C. and 5% CO2. In order to investigate the inhibitory activity of the compounds according to the invention, 1.5×10^4 cells per well were cultivated in triplicate in 96-well dishes in the above medium (200 μl), the cell proliferation being stimulated with either EGF (20 ng/ml) or murine IL-3. The IL-3 used was obtained from culture supernatants of the cell line X63/0 mIL-3 (cf. H. Karasuyama et al., Eur. J. Immunol. 18, 97–104 (1988)). The compounds according to the invention were dissolved in 100% dimethylsulfoxide (DMSO) and added to the cultures in various dilutions, the maximum DMSO concentration being 1%. The cultures were incubated for 48 hours at 37° C.
In order to determine the inhibitory activity of the compounds according to the invention the relative cell number was measured in O.D. units using the Cell Titer 96™ Aqueous Non-Radioactive Cell Proliferation Assay (Promega). The relative cell number was calculated as a percentage of the control (F/LHERc cells without inhibitor) and the concentration of active substance which inhibits the proliferation of the cells by 50% (IC50) was derived therefrom.

T1 sequence (P00533 25-1210): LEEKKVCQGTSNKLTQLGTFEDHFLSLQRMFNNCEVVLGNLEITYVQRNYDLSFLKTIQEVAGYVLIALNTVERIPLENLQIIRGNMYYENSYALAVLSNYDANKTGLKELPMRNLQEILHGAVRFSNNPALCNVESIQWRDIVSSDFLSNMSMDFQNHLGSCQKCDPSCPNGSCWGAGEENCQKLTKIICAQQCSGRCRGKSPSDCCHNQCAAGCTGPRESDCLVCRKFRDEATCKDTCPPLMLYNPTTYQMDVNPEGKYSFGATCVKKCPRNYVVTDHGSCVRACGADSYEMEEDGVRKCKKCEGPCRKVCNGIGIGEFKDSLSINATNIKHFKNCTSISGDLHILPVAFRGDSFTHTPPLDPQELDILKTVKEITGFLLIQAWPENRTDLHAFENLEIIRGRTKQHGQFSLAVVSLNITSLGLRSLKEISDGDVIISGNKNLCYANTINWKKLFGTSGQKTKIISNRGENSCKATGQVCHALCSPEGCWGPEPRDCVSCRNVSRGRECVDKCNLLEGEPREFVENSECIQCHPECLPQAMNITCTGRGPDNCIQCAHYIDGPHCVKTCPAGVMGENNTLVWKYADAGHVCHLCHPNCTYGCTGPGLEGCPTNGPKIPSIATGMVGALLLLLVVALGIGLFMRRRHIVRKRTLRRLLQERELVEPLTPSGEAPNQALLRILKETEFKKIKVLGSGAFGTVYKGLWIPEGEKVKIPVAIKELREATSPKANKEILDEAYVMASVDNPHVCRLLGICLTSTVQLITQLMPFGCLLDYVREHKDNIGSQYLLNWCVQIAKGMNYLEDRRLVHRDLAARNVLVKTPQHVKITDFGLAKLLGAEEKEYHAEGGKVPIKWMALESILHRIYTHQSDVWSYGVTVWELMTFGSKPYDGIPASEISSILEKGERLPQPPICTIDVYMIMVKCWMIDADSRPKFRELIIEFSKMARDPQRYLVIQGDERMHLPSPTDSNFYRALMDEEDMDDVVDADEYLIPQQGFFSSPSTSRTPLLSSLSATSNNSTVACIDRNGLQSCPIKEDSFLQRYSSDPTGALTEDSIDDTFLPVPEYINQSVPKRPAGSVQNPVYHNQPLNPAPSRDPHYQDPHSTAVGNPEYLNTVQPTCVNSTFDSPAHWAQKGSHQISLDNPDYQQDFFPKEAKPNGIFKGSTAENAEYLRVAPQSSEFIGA

Row | IC50 (human EGF-R) [pM] | melting point | Structure (SMILES)
1 | < 500 |  | C=CC(=O)Nc1cc2c(Nc3ccc(F)c(Cl)c3)ncnc2cc1OCCCC1CCN(C)CC1 [1(7), 4-[(3-Chloro-4-fluorophenyl)amino]-7-[3-(1-methylpiperidin-4-yl)propyloxy]-6-[(vinylcarbonyl)amino]quinazoline]
2 | 350 |  | CC#CC(=O)Nc1cc2c(Nc3cccc(Br)c3)ncnc2cc1OCCCC1CCN(C)CC1 [2(3), 4-[(3-Bromophenyl)amino]-7-[3-(1-methylpiperidin-4-yl)propyloxy]-6-[(1-oxo-2-butyn-1-yl)amino]quinazoline]
3 | 200 |  | O=C(C=CCN1CCOCC1)Nc1cc2c(Nc3ccc(F)c(Cl)c3)ncnc2cc1OCC1CC1 [3(1), 4-[(3-Chloro-4-fluorophenyl)amino]-6-{[4-(morpholin-4-yl)-1-oxo-2-buten-1-yl]amino}-7-cyclopropylmethoxyquinazoline]
4 | < 350 |  | C=CC(=O)Nc1cc2c(Nc3cccc(Br)c3)ncnc2cc1OCCCC1CCN(C)CC1 [Example 1, 4-[(3-Bromophenyl)amino]-7-[3-(1-methylpiperidin-4-yl)propyloxy]-6-[(vinylcarbonyl)amino]quinazoline]
5 | 5000 | ~ 145 °C (dec.) | CCN(CC)CC=CC(=O)Nc1cc2c(Nc3ccc(F)c(Cl)c3)ncnc2cc1OCC1CC1 [Example 3, 4-[(3-Chloro-4-fluorophenyl)amino]-6-{[4-(N,N-diethylamino)-1-oxo-2-buten-1-yl]amino}-7-cyclopropylmethoxyquinazoline]
